Source: patent publication US20160113931A1, “Method of treating and/or preventing neurodegenerative diseases” (University of Macau, priority 2014, published 2016)
Entries after “also recorded” stand apart in the source; their conditions may differ.

System: zebrafish
Test: MPTP-induced dopaminergic neuron loss in zebrafish (TH whole-mount immunostaining)
Assay type: in vivo, Danio rerio
Conditions: for TH+ density, percentage of the control group: 360 μM MPTP 48 h, 1 dpf zebrafish
Description: Zebrafish at 1 dpf were exposed to BHDPC (3, 10, 30 μM) with or without MPTP for 48 h. Then fish were fixed for whole mount immunostaining. The morphology change of dopaminergic neurons in zebrafish brain was indicated by immunostaining with antibody against tyrosine hydroxylase (TH). Statistical analysis of TH density was accessed in each 10 fish/group. […] Zebrafish at 1 dpf were exposed to different concentrations of BHDPC with or without MPTP for 48 h. Then fish were fixed for whole mount immunostaining.
The AB strain of wild type zebrafish (Danio rerio) was maintained as described in the Zebrafish Handbook. Zebrafish were staged by days post fertilization […]. For breeding, groups of male and female (3:2) adult zebrafish were placed in 10-L plastic aquarium equipped with spawning nets in the evening. In the following morning, eggs were collected from the breeding group tanks. Normally developed fertilized eggs were selected under a stereomicroscope for further studies. The MPTP manipulation was performed with appropriate safety precautions and all MPTP-containing water was bleached.
Whole-mount immunostaining in zebrafish was performed as previously described. 3 dpf Zebrafish larvae were fixed with 4% paraformaldehyde in PBS for 30 min, […] (TH) staining was performed as previously described. Briefly, zebrafish were fixed in 4% paraformaldehyde in PBS for 5 h. Fixed samples were blocked (2% lamb serum and 0.1% BSA in PBST) for 1 h at room temperature. A mouse monoclonal anti-tyrosine hydroxylase (TH) antibody (Millipore, Billerica, MD, USA) was used as the primary antibody and incubated with samples overnight at 4° C. On the next day, samples were washed six times with PBST (each wash lasted 30 min), followed by incubation with Alexa Fluor® 488 goat anti-mouse antibodies. After immunostaining, zebrafish were mounted with 3.5% methylcellulose and photographed. Semi-quantification of the area of TH^+ cells was assessed by an investigator, unaware of the drug treatment, using Image-J software. Results are expressed as percentage of area of TH^+ cells in untreated normal control groups.
In this example, the in vivo animal model was used to determine the neuroprotective effect of BHDPC. Anti-tyrosine hydroxylase (TH) whole mount immunostaining was used to determine dopaminergic neuronal populations in zebrafish larvae (FIG. 15A). TH activity is the key enzyme responsible for dopamine biosynthesis in the CNS. […] The dopamine reuptake inhibitor nomifensine (Nom), which protected against MPTP-induced neurotoxicity in vivo was used as a positive control. The treatment of larvae with 30 μM of nomifensine, a positive control drug attenuated MPTP-induced neurotoxicity, with TH^+ density […] by 30% compared to the MPTP group.
L-deprenyl, which is a substituted phenethylamine used in treatment of early Parkinson's disease, was used as a positive control.

## COc1cc(C2C(C(=O)OCc3ccccc3)=C(C)Nc3nnnn32)ccc1O (centres unmarked) [BHDPC, benzyl 7-(4-hydroxy-3-methoxyphenyl)-5-methyl-4,7-dihydrotetrazolo[1,5-a]pyrimidine-6-carboxylate]
3 μM
  TH+ density, percentage of the control group: 66%
10 μM
  TH+ density, percentage of the control group: 74%
30 μM
  TH+ density, percentage of the control group: 90%
3 and 10 μM, MPTP 48 h, dose-dependent
  MPTP-induced TH+ density decrease (FIG. 15B): rescue dramatically; also recorded: protected against MPTP-induced DA neuron loss
BHDPC treated zebrafish compared to control groups
  toxicity in the vital organs: No toxicity was observed
